The results in this text go back to PubChem BioAssay AID330 (DTP/NCI, 2004).

Several values for one entry are separate records, joined by “and”; a condition that tells them apart may be missing. Equal values may be shown once. Toxic doses and inconclusive results are not listed. Peptide text beside a SMILES is read from it. * marks the point of attachment. Boc = CC(C)(C)OC(=O)*; OtBu = CC(C)(C)O*

The subject of the assay is P388 leukemia ip, CD2F1 mice, survival T/C. As to the kind of experiment: NCI In Vivo Anticancer Drug Screen. Data for tumor model P388 Leukemia (intraperitoneal) in CD2F1 (CDF1) mice. Conditions: endpoint: median survival time, higher = longer survival. Put shortly:
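Mice carrying the transplanted tumor received test compound or vehicle. Survival was recorded in each group, and the value is the treated-group measurement divided by that of the vehicle-treated control group.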

The mark [1] stands for this setting: dose: 60.0 mg/kg/injection, schedule: Q01DX005 (ip), vehicle: saline with Tween-80.
Where [2] appears, read: dose: 120.0 mg/kg/injection, schedule: Q01DX005 (ip), vehicle: saline with Tween-80.
Where [3] appears, read: dose: 50.0 mg/kg/injection, schedule: Q01DX005 (ip), vehicle: saline with Tween-80.
Where [4] appears, read: dose: 100.0 mg/kg/injection, schedule: Q01DX005 (ip), vehicle: saline with Tween-80.
Setting [5] is: dose: 200.0 mg/kg/injection, schedule: Q01DX005 (ip), vehicle: saline with Tween-80.
Where [6] appears, read: dose: 100.0 mg/kg/injection, schedule: Q04DX002 (ip), vehicle: saline with Tween-80.
Setting [7] is: dose: 200.0 mg/kg/injection, schedule: Q04DX002 (ip), vehicle: saline with Tween-80.
Where [8] appears, read: dose: 50.0 mg/kg/injection, schedule: Q01DX009 (ip), vehicle: Klucel (hydroxypropylcellulose) (HPC).
Where [9] appears, read: dose: 50.0 mg/kg/injection, schedule: Q01DX005 (ip), vehicle: Klucel (hydroxypropylcellulose) (HPC).
[10] abbreviates: dose: 200.0 mg/kg/injection, schedule: Q01DX005 (ip), vehicle: Klucel (hydroxypropylcellulose) (HPC).
The mark [11] stands for this setting: dose: 100.0 mg/kg/injection, schedule: Q01DX009 (ip), vehicle: Klucel (hydroxypropylcellulose) (HPC).
[12] abbreviates: dose: 200.0 mg/kg/injection, schedule: Q01DX009 (ip), vehicle: Klucel (hydroxypropylcellulose) (HPC).
The mark [13] stands for this setting: dose: 100.0 mg/kg/injection, schedule: Q01DX005 (ip), vehicle: Klucel (hydroxypropylcellulose) (HPC).

As to `CC(=O)C[C@H](c1ccccc1)c1ccccc1[C@H](C)N(C)C`, the T/C runs as follows: under setting [1], 106 % of control; under setting [2], 104 % of control.
As for `N#CCCn1nc(SCc2ccccc2)c(=S)[nH]c1=O`, the T/C was 95 % of control under setting [3], 98 % of control under setting [4] and 100 % of control under setting [5].
`CC1=C(Cl)C(=N\S(=O)(=O)c2ccccc2)/c2ccccc2/C1=N/S(=O)(=O)c1ccccc1`: the T/C (dose: 100.0 mg/kg/injection, schedule: Q01DX001 (ip), vehicle: saline with Tween-80) was 95 % of control and the T/C (dose: 200.0 mg/kg/injection, schedule: Q01DX001 (ip), vehicle: saline with Tween-80) was 95 % of control.
Take `Oc1ccc2[nH]c3cc4ccncc4cc3c2c1`: the T/C by setting is: (dose: 25.0 mg/kg/injection, schedule: Q04DX002 (ip), vehicle: saline with Tween-80) 106 % of control; (dose: 50.0 mg/kg/injection, schedule: Q04DX002 (ip), vehicle: saline with Tween-80) 97 % of control; under setting [6], 122 % of control; under setting [7], 115 % of control.
Turning to `C=C(COC(=O)Nc1cc(Cl)ccc1C)C(=O)O`, the T/C under setting [8] is 105 % of control.
As for `CN1CCC2(CC1)OCCCO2`, the T/C runs as follows: (dose: 25.0 mg/kg/injection, schedule: Q01DX005 (ip), vehicle: saline with Tween-80) 102 % of control; under setting [3], 94 % of control; (dose: 50.0 mg/kg/injection, schedule: Q01DX005 (ip), vehicle: saline) 99 % of control; (dose: 75.0 mg/kg/injection, schedule: Q01DX001 (ip), vehicle: saline with Tween-80) 105 % of control; under setting [4], 100 % of control and 88 % of control; (dose: 100.0 mg/kg/injection, schedule: Q01DX005 (ip), vehicle: saline) 96 % of control. The T/C is, setting by setting: (dose: 125.0 mg/kg/injection, schedule: Q01DX001 (ip), vehicle: saline with Tween-80) 101 % of control; (dose: 200.0 mg/kg/injection, schedule: Q01DX005 (ip), vehicle: saline) 102 % of control; (dose: 250.0 mg/kg/injection, schedule: Q01DX001 (ip), vehicle: saline with Tween-80) 93 % of control.
For `COc1ccc2nc(CC(=N)c3ccc(N(C)C)cc3)ccc2c1`, the T/C was 89 % of control under setting [3], 89 % of control under setting [4] and 92 % of control under setting [5].
In the case of `FC(F)(F)c1ccc(NC(=S)SCc2ccc(Cl)cc2)cc1`, the T/C is, setting by setting: (dose: 50.0 mg/kg/injection, schedule: Q01DX009 (ip), vehicle: suspension in saline) 90 % of control; (dose: 100.0 mg/kg/injection, schedule: Q01DX009 (ip), vehicle: suspension in saline) 100 % of control; (dose: 200.0 mg/kg/injection, schedule: Q01DX009 (ip), vehicle: suspension in saline) 108 % of control.
In the case of `Fc1ccc(C(Nc2nncs2)Nc2nncs2)cc1`, the T/C is 111 % of control under setting [9] and 152 % of control under setting [10].
Regarding `CCCCC(N)P(=O)(O)O` (stereo unspecified), the T/C runs as follows: (dose: 12.5 mg/kg/injection, schedule: Q01DX009 (ip), vehicle: saline) 87 % of control; (dose: 25.0 mg/kg/injection, schedule: Q01DX009 (ip), vehicle: saline) 92 % of control; (dose: 50.0 mg/kg/injection, schedule: Q01DX009 (ip), vehicle: saline) 86 % of control; (dose: 100.0 mg/kg/injection, schedule: Q01DX009 (ip), vehicle: saline) 97 % of control.
`N#CC1C(=O)NC(=O)C(C#N)C1c1ccncc1` (stereo unspecified): the T/C reads like this: under setting [8], 103 % of control; under setting [11], 104 % of control; under setting [12], 103 % of control.
With `CC[C@@H]1CN2CCc3c([nH]c4ccccc34)[C@@](C(=O)OC)(c3cc4c(cc3OC)N(C)[C@H]3[C@@](O)(C(=O)OC)[C@H](OC(C)=O)[C@]5(CC)C=CCN6CC[C@]43[C@@H]65)C[C@H](C2)C1=O`, the T/C is 104 % of control (dose: 1.0 mg/kg/injection, schedule: Q01DX001 (ip), vehicle: water); 108 % of control (dose: 2.0 mg/kg/injection, schedule: Q01DX001 (ip), vehicle: water); 119 % of control (dose: 4.0 mg/kg/injection, schedule: Q01DX001 (ip), vehicle: distilled water + Tween-80); 120 % of control (dose: 4.0 mg/kg/injection, schedule: Q01DX001 (ip), vehicle: water); 117 % of control (dose: 8.0 mg/kg/injection, schedule: Q01DX001 (ip), vehicle: distilled water + Tween-80); 119 % of control (dose: 16.0 mg/kg/injection, schedule: Q01DX001 (ip), vehicle: distilled water + Tween-80).
Consider `FC(F)(F)c1ccccc1N=Nc1c(-c2ccccc2)nn(C(=S)S)c1-c1ccccc1`, for which the T/C under setting [6] is 93 % of control; the T/C under setting [7] was 91 % of control; the T/C (dose: 400.0 mg/kg/injection, schedule: Q04DX002 (ip), vehicle: saline with Tween-80) was 100 % of control.
For the compound `CCN=c1c([N+](=O)[O-])c(NC(=O)c2ccccc2)sn1CC`, the T/C reads like this: (dose: 100.0 mg/kg/injection, schedule: Q04DX002 (ip), vehicle: Klucel (hydroxypropylcellulose) (HPC)) 97 % of control; (dose: 200.0 mg/kg/injection, schedule: Q04DX002 (ip), vehicle: Klucel (hydroxypropylcellulose) (HPC)) 99 % of control; (dose: 400.0 mg/kg/injection, schedule: Q04DX002 (ip), vehicle: Klucel (hydroxypropylcellulose) (HPC)) 107 % of control.
Regarding `CN(C)C1=C(Cl)C(=O)c2[nH]cnc2C1=O`, the T/C was 113 % of control (dose: 6.25 mg/kg/injection, schedule: Q01DX005 (ip), vehicle: Klucel (hydroxypropylcellulose) (HPC)); 110 % of control (dose: 12.5 mg/kg/injection, schedule: Q01DX005 (ip), vehicle: Klucel (hydroxypropylcellulose) (HPC)); 98 % of control (dose: 25.0 mg/kg/injection, schedule: Q01DX005 (ip), vehicle: Klucel (hydroxypropylcellulose) (HPC)).
As to `CCCCCCOC(=O)c1cccc(N)c1`, the T/C was 100 % of control under setting [8], 106 % of control under setting [11] and 102 % of control under setting [12].
For the compound `O=C1CC2(CCc3ccccc32)C(=O)N1CCN1CCOCC1` (stereo unspecified), the T/C by setting is: under setting [3], 100 % of control; under setting [4], 95 % of control; under setting [5], 105 % of control.
In the case of `c1nnc2c3c4c(sc3ncn12)CCCC4`, the T/C under setting [3] is 97 % of control and the T/C under setting [4] is 91 % of control.
For `CSCCC(NC(=O)OC(C)(C)C)C(=O)NC(Cc1ccccc1)C(=O)NCC(=O)OC(C)(C)C` (stereo not drawn) (Boc-Met-Phe-Gly-OtBu; configuration not given here), the T/C under setting [9] was 93 % of control, the T/C under setting [13] was 97 % of control and the T/C under setting [10] was 107 % of control.
Regarding `COC(=O)N1C(C#N)=CCc2ccccc21`, the T/C by setting is: under setting [1], 94 % of control; under setting [2], 108 % of control; (dose: 240.0 mg/kg/injection, schedule: Q01DX005 (ip), vehicle: saline with Tween-80) 97 % of control.
For `COc1cc(C2SCC(=O)N2c2nnc(C)s2)cc(OC)c1OC` (stereo unspecified), the T/C is, setting by setting: under setting [9], 97 % of control; under setting [13], 89 % of control; under setting [10], 89 % of control.
Consider `COc1cc(C(=O)N/N=C/c2cccc3ccccc23)ccc1O`, for which the T/C runs as follows: (dose: 50.0 mg/kg/injection, schedule: Q01DX009 (ip), vehicle: saline with Tween-80) 86 % of control; (dose: 100.0 mg/kg/injection, schedule: Q01DX009 (ip), vehicle: saline with Tween-80) 90 % of control; (dose: 200.0 mg/kg/injection, schedule: Q01DX009 (ip), vehicle: saline with Tween-80) 90 % of control.
